Assay results taken from ChEMBL document CHEMBL5528050, “Discovery of a Novel Series of Homo sapiens Caseinolytic Protease P Agonists for Colorectal Adenocarcinoma Treatment via ATF3-Dependent Integrated Stress Response” (J Med Chem, 2024).

Tested on: HCT-116
Assay: Antitumor activity against human HCT-116 cells xenografted in BALB/c nude mouse model assessed as reduction in tumor volume at 5 mg/kg,iv and measured upto 21 days relative to control
Assay type: functional
Parameters: scale not given: the % may be the effect or the level left
Conditions: time <= 21 day

`N#Cc1cccc(CN2CCC=C(C(=O)NCc3ccc(C(F)(F)F)cc3)C2)c1` was tested. Which Activity did it give?
The Activity was 83.6%.
